# Reference: article PMC3665348 (Biochemical pharmacology, 2012)
# Molecular target: T1, CYP1A1 (Homo sapiens, UniProt P04798)
# T1 sequence (P04798 1-512): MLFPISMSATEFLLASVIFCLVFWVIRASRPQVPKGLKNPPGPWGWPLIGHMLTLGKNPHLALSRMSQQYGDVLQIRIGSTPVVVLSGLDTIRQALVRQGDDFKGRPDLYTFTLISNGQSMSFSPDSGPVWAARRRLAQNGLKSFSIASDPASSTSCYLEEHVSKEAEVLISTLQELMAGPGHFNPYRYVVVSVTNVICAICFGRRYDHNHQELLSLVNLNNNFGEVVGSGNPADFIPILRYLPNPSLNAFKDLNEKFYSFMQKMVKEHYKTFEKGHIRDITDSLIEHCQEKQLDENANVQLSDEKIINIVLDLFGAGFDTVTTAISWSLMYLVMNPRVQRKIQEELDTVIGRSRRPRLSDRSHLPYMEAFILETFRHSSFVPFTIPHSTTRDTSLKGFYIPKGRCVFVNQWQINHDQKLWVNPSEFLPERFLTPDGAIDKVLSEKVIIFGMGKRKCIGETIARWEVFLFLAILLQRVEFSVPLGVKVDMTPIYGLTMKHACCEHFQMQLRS
# Test: procainamide hydroxylamine
# Type: biochemical
# Details: 20 μM procainamide, NADPH 2 mM, MgCl2 2 mM, 20 mM PBS pH 7.4, 37°C, 30 min
smiles,measurement,value
"CCN(CC)CCNC(=O)c1ccc(N)cc1 [I, Procainamide]","procainamide hydroxylamine (VI) formation, UPLC-ESI-QTOFMS",CYP1A1 also had some activity.
